# In patent publication US8211895B2, “Capped pyrazinoylguanidine sodium channel blockers” (Parion Sciences, Inc., priority 2005, dated 2012):
# System: airway epithelial sodium currents in canine bronchial epithelia (ENaC)
# Assay: In vitro measure of sodium channel blocking activity (short circuit current, Ussing chambers)
# Format: cell-based
# Conditions: potency in canine bronchial epithelia, reported as fold-enhancement relative to amiloride
# Method: In Vitro Measure of Sodium Channel Blocking Activity and Reversibility One assay used to assess mechanism of action and/or potency of the compounds of the present invention involves the determination of lumenal drug inhibition of airway epithelial sodium currents measured under short circuit current (ISC) using airway epithelial monolayers mounted in Ussing chambers. Cells obtained from freshly excised human, dog, sheep or rodent airways are seeded onto porous 0.4 micron Snapwell™ Inserts (CoStar), cultured at air-liquid interface (ALI) conditions in hormonally defined media, and assayed for sodium transport activity (ISC) while bathed in Krebs Bicarbonate Ringer (KBR) in Using chambers. All test drug additions are to the lumenal bath with half-log dose addition protocols (from 1×10^−11 M to 3×10^−5 M), and the cumulative change in ISC (inhibition) recorded. All drugs are prepared in dimethyl sulfoxide as stock solutions at a concentration of 1×10^−2 M and stored at −20° C. Eight preparations are typically run in parallel; two preparations per run incorporate amiloride and/or benzamil as positive controls. After the maximal concentration ([…]) is administered, the lumenal bath is exchanged three times with fresh drug-free KBR solution, and the resultant ISC measured after each wash for approximately 5 minutes in duration. Reversibility is defined as the percent return to the baseline value for sodium current after the third wash. All data from the voltage clamps are collected via a computer interface and analyzed off-line. Dose-effect relationships for all compounds are considered and analyzed by the Prism 3.0 program. IC50 values, maximal effective concentrations, and reversibility are calculated and compared to amiloride and benzamil as positive controls. […] The results for the compounds of the present invention are reported as fold-enhancement values relative to amiloride.
row,Structure (SMILES),Fold Amiloride
1,N=C(NCCCCc1ccc(OCCN(CC(N)=O)CC(N)=O)cc1)NC(=O)c1nc(Cl)c(N)nc1N [Compound 1],77
2,N=C(NCCCCc1ccc(OCCN(CC(=O)O)CC(=O)O)cc1)NC(=O)c1nc(Cl)c(N)nc1N [Compound 2],16
3,N=C(NCCCCc1ccc(OCCNCC(N)=O)cc1)NC(=O)c1nc(Cl)c(N)nc1N [Compound 3],10
4,COC(=O)CC(CC(=O)OC)NCCOc1ccc(CCCCNC(=N)NC(=O)c2nc(Cl)c(N)nc2N)cc1 [Compound 4],81

# System: not given
# Assay: not given
# Conditions: not given
row,melting point,Structure (SMILES)
1,98 to 100 °C (dec.),"NC(=O)CN(CCOc1ccc(CCCCNC(N)=NC(=O)c2nc(Cl)c(N)nc2N)cc1)CC(N)=O [ALB 28062, 2-{Carbamoylmethyl-[2-(4-{4-[N′-(3,5-diamino-6-chloropyrazine-2-carbonyl)-guanidino]butyl}phenoxy)ethyl]amino}acetamide]"
2,84 to 88 °C,"COC(=O)CC(CC(=O)OC)NCCOc1ccc(CCCCNC(N)=NC(=O)c2nc(Cl)c(N)nc2N)cc1 [ALB 28588, 3-[2-(4-{4-[N′-(3,5-Diamino-6-chloropyrazine-2-carbonyl)guanidino]butyl}phenoxy)ethylamino]pentanedioic acid dimethyl ester]"
3,92 to 94 °C (dec.),"NC(=O)CNCCOc1ccc(CCCCNC(N)=NC(=O)c2nc(Cl)c(N)nc2N)cc1 [ALB 28683, 2-[2-(4-{4-[N′-(3,5-Diamino-6-chloropyrazine-2-carbonyl)guanidino]butyl}-phenoxy)ethylamino]acetamide]"
4,110 to 112 °C (dec.),"NC(=NC(=O)c1nc(Cl)c(N)nc1N)NCCCCc1ccc(OCCNCC(=O)O)cc1 [ALB 28897, [2-(4-{4-[N′-(3,5-Diamino-6-chloropyrazine-2-carbonyl)guanidino]butyl}-phenoxy)ethylamino]acetic acid]"
